Measured values: patent US9289471B2, “Product and process for liquefaction of mucus or sputum” (National Jewish Health, priority 2002, dated 2016)

Test: Compaction assay: percent liquid fraction of CF sputum
Set-up: species or system human
Settings: for 3 day range of percent of sputum in the liquid state: donor B; for range of percent liquid values: donor C; for percent liquid fraction: 20 min (FIG. 3A); for liquefying sputum: concentrations below 1 mM
Description: CF sputum stored at −80° C. was thawed at room temperature and aliquoted into 1.5 ml Eppendorf centrifuge tubes at volumes of 275 μl using a positive displacement pipette (Rainin, Emeryville, Calif.). Sputum samples were subjected to either diluent (H2O), Trx+TR+NADPH, GSH+glutathione reductase+NADPH, dithiothreitol (DTT) or N-acetylcysteine treatment by the addition of 25 μl of H2O containing the appropriate molar concentration of each agent. After brief vortexing (˜1 second), sample tubes were loaded onto a microtube rotisserie (Barnstead, Dubuque, Iowa) and incubated at 37° C. for 20 minutes. Samples were then processed for compaction assay according to methodology originated by Daugherty et al. (Daugherty et al., Biomaterials 16:553-558, 1995). To perform the assay, the contents of each sample were loaded into 100 μl glass micro-capillary tubes (Fisher Scientific) that had been previously welded to 200 μl pipette tips in order to achieve a tight fit. Three modified capillary tubes were used to draw up >90% of each sputum sample. Capillary tubes were then removed from their pipette tip, sealed with clay, and centrifuged for 10 minutes in a hematocrit centrifuge (IEC, Needham Heights, Mass.), followed by measurement of the length in millimeters of the gel (solid) and aqueous (liquid) phases in each tube. The percent liquid fraction of each capillary tube was calculated by dividing aqueous phase length by total length (gel+aqueous)×100. The three measurements of the liquid fraction (%) derived from each sample were then averaged to generate a single value for each treatment condition.
Due to abnormal ion transport caused by defects in the CFTR gene, airway secretions in CF patients are often desiccated. As a consequence, purulent CF sputum is comprised largely of a rigid and nonflowing biopolymer matrix, often referred to as gel phase, and lesser amounts of soluble, liquid phase. To assess the effect of Trx on the ratios of these two phases in sputum, compaction assay measurements were performed. […] After 20 minute incubation, the liquid fraction of each sample was determined by compaction assay.
To examine the effect of NADPH, additional samples from different donors were treated with 30 μM Trx, 0.1 μM TR and either 0, 0.2, 0.6, 1.0 or 2 mM NADPH for 20 minutes.
To assess the reproducibility of compaction assay measurements, sputum samples from three different CF donors were separated into aliquots and frozen. Specifically, freshly isolated CF sputum from three different donors (A, B, C) was separated into 275 μl aliquots and frozen. […] Results obtained from three independent experiments performed on each donor sample were used to evaluate assay reproducibility. On three consecutive days, aliquots were thawed, and treated with water, Trx and its reducing system, dithiothreitol (DTT), or no treatment.
The effectiveness of Trx in liquefying sputum was compared with other monothiol and dithiol reducing agents. Sputum samples were aliquoted and treated with Trx or GSH for 20 minutes and percent liquid determined by compaction assay. Initial compaction assay experiments compared the potencies of the Trx and GSH reducing systems in liquefaction of sputum in the presence of equimolar concentrations of NADPH. […] The analysis of Trx and NAC efficacy also was determined after 20 minute incubation, but on a different set of sputum samples.

O[C@H](CS)[C@H](O)CS (racemic) [DTT, dithiothreitol]
3 day range of percent of sputum in the liquid state (1 mM DTT): 24-31% | 3 day range of percent of sputum in the liquid state (5 mM DTT): 42-57% | range of percent liquid values (1 mM DTT): 57-61% | range of percent liquid values (5 mM DTT): 77-79% | sputum liquefying effectiveness compared with NAC (equimolar basis (FIGS. 2 and 3; data not shown)): more effective on an equimolar basis than NAC

N[C@@H](CCC(=O)N[C@@H](CS)C(=O)NCC(=O)O)C(=O)O [GSH, glutathione]
percent liquid fraction (30 μM GSH + 0.1 μM Gr + 2 mM NADPH): 7.8±5.7% | percent liquid fraction (100 μM GSH + 0.1 μM Gr + 2 mM NADPH): 15.9±9.3% | percent liquid fraction (1 mM GSH + 0.1 μM Gr + 2 mM NADPH): 27.6±3.9% | significance of increase in liquid fraction versus control (GSH at comparable or higher concentrations up to 1 mM): a significant increase in the liquid fraction of sputum was not observed | liquefying sputum: ineffective

CC(=O)N[C@@H](CS)C(=O)O [N-acetylcysteine]
liquefying sputum: ineffective | effectiveness in causing liquefaction of sputum compared with Trx (range of concentrations, 20 min, 4 experiments (FIG. 3B)): less effective than Trx

NC(=O)C1=CN([C@@H]2O[C@H](COP(=O)(O)OP(=O)(O)OC[C@H]3O[C@@H](n4cnc5c(N)ncnc54)[C@H](OP(=O)(O)O)[C@@H]3O)[C@@H](O)[C@H]2O)C=CC1 [NADPH, β-Nicotinamide adenine dinucleotide phosphate, reduced form]
increase in proportion of sputum present in the liquid fraction (NADPH in the absence of Trx (not shown)): did not cause any increase
